What was measured:
Assay type in all cases: in vivo
[1] = tested on: Helicoverpa armigera (cotton bollworm); test: Test Example 1: test for controlling damage by Helicoverpa armigera on potted cabbage; conditions: spray on potted cabbage, two fourth-instar larvae, damage after 6 days
Method: Twenty parts of Compound (I) were dissolved in 70 parts of Solvesso 150 (solvent manufactured by Exxon Chemical), and 6 parts of Toximul 3454F (surfactant manufactured by Stepan) and 4 parts of Toximul 3455F (surfactant manufactured by Stepan) were added thereto and mixed well to give an emulsifiable concentrate. An aqueous dilution of the emulsifiable concentrate and an aqueous dilution of a water-soluble formulation of Compound A (commercial name: Mospilan water-soluble formulation produced by Kumiai Chemical Industry) were mixed together to make a designated concentration, to which a spreading agent (New Rinou manufactured by Nihon Nohyaku) was added to make a volume of the spreading agent 1/3000. The prepared application solution was sprayed over potted cabbage (at the fourth to fifth leaf stage) at a volume of 40ml per pot. The treated plants were air dried, and then two fourth-instar larvae of Helicoverpa armigera (cotton bollworm) were set free. After 6 days, the damage (%) of the plant was observed. Each controlling ratio (%) was calculated by the following equation based on the damage (%) of non-treated plant.
(§1) Controlling ratio (%)=100×(Damage of non-treated plant−Damage of treated plant)/ Damage of non-treated plant

[2] = tested on: Helicoverpa armigera (cotton bollworm); test: Test Example 2: test for controlling damage by Helicoverpa armigera on potted cabbage; conditions: spray on potted cabbage, five fourth-instar larvae, damage after 7 days
Method: An aqueous dilution of the emulsifiable concentrate and an aqueous dilution of an emulsifiable concentrate, obtained by mixing 10 parts of Compound B or Compound C, 40 parts of xylene, 40 parts of dimethylformamide and 10 parts of Solpol 3005X, were mixed together to make a designated concentration, to which a spreading agent (New Rinou manufactured by Nihon Nohyaku) was added to make a volume of the spreading agent 1/3000. The prepared application solution was sprayed over potted cabbage (at the fourth to fifth leaf stage) at a volume of 40ml per pot. The treated plants were air dried, and then five fourth-instar larvae of Helicoverpa armigera (cotton bollworm) were set free. After 7 days, the damage (%) of the plant was observed. Each controlling ratio (%) was calculated by the following equation based on the damage (%) of non-treated plant.
as §1

[3] = tested on: Aphis gossypii (cotton aphid); test: Test Example 3: test for controlling damage by Aphis gossypii on potted cucumber; conditions: spray on potted cucumber, two days after treatment, index near zero shows high controlling effect
Method: (§2) Twenty parts of Compound (I) were dissolved in 70 parts of Solvesso 150 (mentioned above), and 6 parts of Toximul 3454F (mentioned above) and 4 parts of Toximul 3455F (mentioned above) were added thereto and mixed well to give an emulsifiable concentrate. An aqueous dilution of the emulsifiable concentrate and an aqueous dilution of a water-soluble formulation of Compound A (commercial name : Mospilan water-soluble formulation produced by Kumiai Chemical Industry) were mixed together to make a designated concentration, to which a spreading agent (New Rinou manufactured by Nihon Nohyaku) was added to make a volume of the spreading agent 1/5000.
(§3) About thirty Aphis gossypii (cotton aphid) in various growth stages were set free on potted cucumber (at the first leaf stage), and then the prepared application solution was sprayed over at a volume of 40ml per pot. The treated plants were air dried, covered for preventing escape of the tested aphids and invasion from the outside and set in a greenhouse (25° C.).
(§4) Corrected indices were calculated by the following equation based on prerecorded parasitic number of tested aphids on the tested plant before treatment and the parasitic number after two days from the treatment.
Corrected index=100×(T2DAT/Tpre)/(C2DAT/Cpre)
T2DAT: Number of the tested aphids on the plant after two days from the treatment […]

[4] = tested on: Aphis gossypii (cotton aphid); test: Test Example 4: test for controlling damage by Aphis gossypii on potted cucumber; conditions: spray on potted cucumber, two days after treatment
Method: as §2, with “an emulsifiable concentrate, obtained by mixing 10 parts” for “a water-soluble formulation”, “C, 40 parts of xylene, 40 parts of dimethylformamide and 10 parts of Solpol 3005X,” for “A (commercial name : Mospilan water-soluble formulation produced by Kumiai Chemical Industry)”
as §3, §4

## FC(F)(F)c1ccc(OCCCOc2c(Cl)cc(OCC=C(Cl)Cl)cc2Cl)nc1 [(I), 3,5-dichloro-1-(3,3-dichloro-2-propenyloxy)-4-[3-(5-trifluoromethylpyridin-2-yloxy)propoxy]benzene]
[1]; 2.5 ppm
  Controlling ratio (%): 25%
[1]; 5.0 ppm
  Controlling ratio (%): 50%
[2]; 2.5 ppm
  Controlling ratio (%): 20%
[2]; 4 ppm
  Controlling ratio (%): 40%
[3]; 0.5 ppm
  Corrected index: 83
[4]; 0.5 ppm
  Corrected index: 83

## CN1COCN(Cc2cnc(Cl)s2)/C1=N/[N+](=O)[O-] [Compound C, 3-(2-chlorothiazol-5-ylmethyl)-5-methyl-4-nitroiminoperhydro-1,3,5-oxadiazine, reference compound]
[2]; 100 ppm
  Controlling ratio (%): 0%
[4]; 0.25 ppm
  Corrected index: 44

## C/C(=N\C#N)N(C)Cc1ccc(Cl)nc1 [Compound A, (E)-N^1-[(6-chloro-3-pyridyl)methyl]-N^2-cyano-N^1-methylacetamidine, reference compound]
[1]; 100 ppm
  Controlling ratio (%): 0%
[3]; 0.125 ppm
  Corrected index: 29

## CN/C(=N\[N+](=O)[O-])NCC1CCOC1 (centres unmarked) [Compound B, 1-[(tetrahydro-3-furanyl)methyl]-2-nitro-3-methylguanidine, reference compound]
[2]; 200 ppm
  Controlling ratio (%): 40%

— patent publication US6566378B1, “Pesticidal compositions and pesticidal methods” (Sumitomo Chemical Company, Limited, priority 1999, dated 2003)
